pIC50: −log10 of the molar value. Where two headings read alike, the source gives them in different places.
Legend:
HDAC (HeLa cell extract) = test: Primary assay: deacetylase activity, HeLa cell extract as source of HDAC; type: biochemical, human; conditions: HeLa cell extract
Summary of the method: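 Crude HeLa extract (freeze-thaw in 60 mM TrisCl pH 8.0, 450 mM NaCl, 30% glycerol) was incubated 1 h at 37° C with a [³H]acetyl-labelled histone H4 N-terminal peptide in 20 mM Tris pH 7.4, 10% glycerol.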

HeLa cells = test: Secondary assay: cell proliferation WST-1, HeLa; type: cell-based; conditions: Homo sapiens, 48 h, read-out: Cell Proliferation Inhibition WST-1 (IC50 unless otherwise specified) HeLa
Summary of the method: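 Absorbance at 450 nm (reference 690 nm); % activity vs untreated after blank subtraction, IC50 fitted with top 100 and bottom 0.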

JURKAT human T-cell line = test: Secondary assay: cell proliferation WST-1, Jurkat; type: cell-based; conditions: 48 h; for pIC50: Homo sapiens, read-out: Cell Proliferation Inhibition WST-1 (IC50 unless otherwise specified) Jurkat
Protocol: (§1) Compounds with HDAC inhibition activity, as determined using the primary assay, were subsequently evaluated using secondary cell-based assays. The following cell lines were used:
JURKAT—Human T-cell line (ATCC no. TIB-152).
(§2) Cells were plated in 96-well plates at 3-10×10^3 cells/well in 100 μL of culture medium. The following day, different concentrations of candidate compounds were added and the cells incubated at 37° C. for 48 h. Subsequently, 10 μL/well of WST-1 reagent was added and the cells reincubated for 1 hour. After the incubation time, absorbance was measured.
(§3) WST-1 is a tetrazolium salt which is cleaved to formazan dye by cellular enzymes. An expansion in the number of viable cells results in an increase in the overall activity of mitochondrial dehydrogenases in the sample. This augmentation in the enzyme activity leads to an increase in the amount of formazan dye formed, which directly correlates to the number of metabolically active cells in the culture. The formazan dye produced is quantified by a scanning multiwell spectrophotometer by measuring the absorbance of the dye solution at 450 nm wavelength (reference wavelength 690 nm).
(§4) Percent activity (% activity) in reducing the number of viable cells was calculated for each test compound as: % activity={(S^C−B)/(S^o−B)}×100 wherein S^C denotes signal measured in the presence of the compound being tested, S^o denotes signal measured in the absence of the compound being tested, and B denotes the background signal measured in blank wells containing medium only.
(§5) IC50 values were calculated using the software package Prism 3.0 (GraphPad software Inc., San Diego, Calif.), setting top value at 100 and bottom value at 0.

[1] = test system: K11 HPV E7 transformed human keratinocyte line; test: Secondary assay: cell proliferation WST-1, K11; type: cell-based; conditions: for pIC50: Homo sapiens, Keratinocyte, read-out: Cell Proliferation Inhibition WST-1 (IC50 unless otherwise specified) K11
Protocol: as §1
K11—HPV E7 transformed human keratinocyte line provided by Pidder Jansen-Duerr, Institut für Biomedizinische Alternsforschung, Innsbruck, Austria.
as §2, §3, §4, §5

[2] = read-out: HDAC Inhibition (IC50 unless otherwise specified) HeLa

SMILES | HDAC Inhibition HeLa, percent (HDAC (HeLa cell extract); @ 100 nM) [% @ 100 nM] | pIC50 (HeLa cells) | melting point [°C] | pIC50 (JURKAT human T-cell line) | pIC50 ([1]; 48 h) | pIC50 (HDAC (HeLa cell extract); [2]) | Cell Proliferation Inhibition WST-1 (IC50 unless otherwise specified) Jurkat (JURKAT human T-cell line) | Cell Proliferation Inhibition WST-1 (IC50 unless otherwise specified) K11 ([1]; K11, 48 h) | pIC50 (HDAC (HeLa cell extract); comparative tables, read-out: HeLa IC50) | pIC50 ([1]; K11, 48 h) | HDAC Inhibition HeLa, percent (HDAC (HeLa cell extract); @ 500 nM) [% @ 500 nM]
Cc1ccc(C(CC(=O)NCCCCCC(=O)NO)NC(=O)OCc2ccccc2)cc1 (stereo not drawn) [PX117729, [2-(5-Hydroxycarbamoyl-pentylcarbamoyl)-1-p-tolyl-ethyl]-carbamic acid benzyl ester] | 13 | 4.48 | 146 to 148 | 5.55 | 4.64 | – | – | – | – | – | –
O=C(CCCCCNC(=O)[C@H](Cc1c[nH]c2ccccc12)NC(=O)CCCNC(=O)OCc1ccccc1)NO [PX117785, (S)-Carbamic acid, [4-[[2-[[6-(hydroxyamino)-6-oxohexyl]amino]-1-(1H-indol-3-ylmethyl)-2-oxoethyl]amino]-4-oxobutyl]-, phenylmethyl ester] | – | – | – | – | – | 6.72 | Inactive | Inactive | – | – | –
O=C(/C=C/c1cccc2ccccc12)NCCCCCC(=O)NO [PX117441, N-(5-Hydroxycarbamoyl-pentyl)-3-naphthalen-1-yl-acrylamide] | – | 4.77 | 135 to 137 | 5.37 | 5.31 | 7.32 | – | – | 7.32 | – | –
O=C(CCCCCNC(=O)[C@H](Cc1c[nH]c2ccccc12)NC(=O)c1ccc2ccccc2c1)NO [PX117783, (S)-Naphthalene-2-carboxylic acid [1-(5-hydroxycarbamoyl-pentylcarbamoyl)-2-(1H-indol-3-yl)-ethyl]-amide] | – | 5.22 | – | 5.80 | – | 7.00 | – | – | – | 5.01 | –
O=C(CCCCCCC(=O)NC/C=C/c1ccccc1)NO [PX117416, Octanedioic acid hydroxyamide (3-phenyl-allyl)-amide] | – | 5.13 | 133 to 133.5 | 5.44 | 5.07 | – | – | – | – | – | 75
CN(CCCCCC(=O)NO)C(=O)/C=C/C=C/c1ccccc1 [PX116234] | – | 5.47 | 145 to 147 | 5.57 | 5.44 | 7.82 | – | – | – | – | –
O=C(CCCCCNC(=O)CC=C(c1ccccc1)c1ccccc1)NO [PX117454, E-4,4-Diphenylbut-3-enoic acid (5-hydroxycarbamoylpentyl)amide] | – | 4.82 | – | 5.47 | 4.89 | 6.58 | – | – | – | – | –
O=C(/C=C/c1cccn1-c1ccc(Cl)cc1)NCCCCCC(=O)NO [PX116235, E-3-[1-(4-Chlorophenyl)-1H-pyrrol-2-yl]-N-(5-hydroxycarbamoylpentyl)acrylamide] | – | 6.00 | – | 6.15 | 5.59 | 8.00 | – | – | – | – | –
O=C(CCCCCCCNC(=O)c1ccc2ccccc2c1)NO [PX106515, Naphthalene-2-carboxylic acid (7-hydroxycarbamoyl-heptyl)-amide] | – | 5.44 | 138 to 139 | 5.57 | 5.74 | 7.56 | – | – | – | – | –
O=C(/C=C/c1ccc(C(F)(F)F)cc1)NCCCCCC(=O)NO [PX117717, N-(5-Hydroxycarbamoyl-pentyl)-3-(4-trifluoromethyl-phenyl)-acrylamide] | – | 5.23 | 132 to 134 | 6.39 | 5.63 | 7.66 | – | – | – | – | –
O=C(CCCCCNC(=O)c1sccc1OCc1ccccc1)NO [PX117723] | – | – | – | 5.92 | 5.00 | – | – | – | – | – | 46
O=C(/C=C/c1cccc(NC(=O)/C=C/C=C/c2ccccc2)c1)NO [PX117706, N-{3-[(E)-3-(Hydroxyamino)-3-oxo-1-propenyl]phenyl}-5-phenyl-(2E,4E)-pentadienamide] | – | 4.52 | – | 5.74 | 5.16 | 6.49 | – | – | – | – | –
O=C(/C=C/c1ccc(Cl)cc1F)NCCCCCC(=O)NO [PX117719, 3-(4-Chloro-2-fluoro-phenyl)-N-(5-hydroxycarbamoyl-pentyl)-acrylamide] | – | 5.17 | – | 6.25 | 6.03 | – | – | – | – | – | –
O=C(CCCCCNC(=O)c1ccc(Oc2ccccc2)cc1)NO [PX117726] | – | – | – | 5.00 | 5.39 | – | – | – | – | – | 35
CC(=C\c1ccccc1)/C=C(\C)C(=O)NCCCCCC(=O)NO [PX117738, (2E)(4E)-2,4-Dimethyl-5-phenylpenta-2,4-dienoic acid (5-hydroxycarbamoyl-pentyl)amide] | – | 4.62 | 120 to 122 | 5.77 | 5.49 | 6.88 | – | – | – | – | –
O=C(/C=C/c1cccc(NC(=O)/C=C/c2ccc3c(c2)OCO3)c1)NO [PX117711, (E)-3-(1,3-Benzodioxol-5-yl)-N-{3-[(E)-3-(hydroxyamino)-3-oxo-1-propenyl]phenyl}-2-propenamide] | – | 5.01 | 128 | 6.04 | 5.10 | 6.36 | – | – | – | – | –
O=C(CCCCCCNC(=O)c1ccc2ccccc2c1)NO [PX106493, Naphthalene-2-carboxylic acid (6-hydroxycarbamoyl-hexyl)-amide] | – | 6.44 | 136 to 137 | 6.70 | 5.68 | – | – | – | – | – | –
O=C(CCCCCNC(=O)[C@H](Cc1c[nH]c2ccccc12)NC(=O)CCCc1c[nH]c2ccccc12)NO [PX117767, N-Hydroxy-6-[((2S)-3-(1H-indol-3-yl)-2-{[4-(1H-indol-3-yl)butanoyl]amino}propanoyl)-amino]hexanamide] | – | 4.82 | 94 to 96 | 5.52 | 5.21 | 7.05 | – | – | – | – | –
CC(/C=C/C(=O)Nc1cccc(/C=C/C(=O)NO)c1)=C\c1ccccc1 [PX117707, N-{3-[(E)-3-(Hydroxyamino)-3-oxo-1-propenyl]phenyl}-4-methyl-5-phenyl-(2E,4E)-pentadienamide] | – | 4.37 | 145 to 148 | 5.82 | 5.11 | 6.63 | – | – | – | – | –
O=C(/C=C/c1cccc(Oc2ccccc2)c1)NCCCCCC(=O)NO [PX117430, E-N-(5-Hydroxycarbamoylpentyl)-3-(3-phenoxyphenyl)acrylamide] | – | 4.57 | – | 5.34 | 5.36 | 7.07 | – | – | – | – | –
O=C(/C=C/c1cccc(OC(F)(F)F)c1)NCCCCCC(=O)NO [PX117718, N-(5-Hydroxycarbamoyl-pentyl)-3-(3-trifluoromethoxy-phenyl)-acrylamide] | – | 4.41 | 109 to 111 | 5.36 | 5.43 | 7.17 | – | – | – | – | –
O=C(C=C(c1ccccc1)c1ccccc1)NCCCCCC(=O)NO [PX117436, E-N-(5-Hydroxycarbamoylpentyl)-3,3-diphenylacrylamide] | – | 5.07 | – | 5.46 | < 4.52 | – | – | – | – | – | 64
CC(C)(C(=O)NCCCCCC(=O)NO)c1ccc(Cl)cc1 [PX117722, 6-[2-(4-Chlorophenyl)-2-methyl-propionylamino]-hexanoic acid hydroxyamide] | – | – | – | 5.06 | < 4.52 | < 7.00 | – | – | – | – | –
C/C(C(=O)NCCCCCC(=O)NO)=C(/C)c1ccccc1 [PX117737, E-2-Methyl-3-phenylbut-2-enoic acid (5-hydroxycarbamoylpentyl)amide] | – | 4.49 | – | 5.66 | < 4.52 | 5.92 | – | – | – | – | –
O=C(CCCCCNC(=O)Cc1ccccc1OCc1ccccc1)NO [PX117728] | – | – | – | 5.39 | 4.55 | < 7.00 | – | – | – | – | –
O=C(CCCCCCC(=O)NCCc1ccccc1)NO [PX117419, Octanedioic acid hydroxyamide phenethyl-amide] | – | 4.89 | – | 5.46 | < 4.52 | – | – | – | – | – | 46
O=C(/C=C/C=C(c1ccccc1)c1ccccc1)NCCCCCC(=O)NO [PX117437, 2E-5,5-Diphenylpenta-2,4-dienoic acid (5-hydroxycarbamoylpentyl)amide] | – | 5.43 | – | 5.85 | 5.47 | – | – | – | – | – | 95
